Test results from paper PMC9921896 (Molecules, 2023).

Key:
estrogenicity = details: cited from earlier work
CYP2B6 = biological target: T1, CYP2B6 (Homo sapiens, UniProt P20813); assay: Single concentration Kobs assay (time-dependent inhibition) in HLM; format: biochemical; details: human liver microsomes, significant if >50%, read-out: 2B6 R_Inh% (reversible inhibition)
T1 construct: Using HLM as the enzyme source; from tissue; host or cells: human liver microsomes
T1 sequence (P20813 1-491): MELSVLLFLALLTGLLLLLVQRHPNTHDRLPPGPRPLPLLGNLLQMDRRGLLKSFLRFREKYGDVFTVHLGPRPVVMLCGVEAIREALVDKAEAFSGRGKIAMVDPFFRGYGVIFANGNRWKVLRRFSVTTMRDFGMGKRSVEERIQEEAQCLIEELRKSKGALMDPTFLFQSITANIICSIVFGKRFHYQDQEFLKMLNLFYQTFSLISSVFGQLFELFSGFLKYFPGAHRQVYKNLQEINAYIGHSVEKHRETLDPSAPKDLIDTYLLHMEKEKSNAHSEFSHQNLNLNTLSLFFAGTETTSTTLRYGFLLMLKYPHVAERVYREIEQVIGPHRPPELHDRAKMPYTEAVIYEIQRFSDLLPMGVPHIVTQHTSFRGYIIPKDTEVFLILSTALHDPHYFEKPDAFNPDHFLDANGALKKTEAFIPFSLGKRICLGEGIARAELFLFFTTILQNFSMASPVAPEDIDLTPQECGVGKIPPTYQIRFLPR

[1] = Metabolite identification (MetID) in hepatocytes by LC-MS/MS; format: in vitro ADME, human; details: 80 min incubation, HR LC-MS/MS, metabolite M1, parent ion m/z 551 (375 + 176)
Text: However, on the contrary, these metabolites can also be formed with higher or equivalent toxicity when compared to the parent ligand. Therefore, to gain such an understanding of metabolite toxicity, 223-2 TbB ligand was shortlisted for metabolite identification (MetID) studies as it was the least prominent CYP inhibitor among the three TbB ligands studied for CYP inhibition, as discussed in earlier sections. The metabolites’ detection and identification were accomplished by utilizing the high-resolution LC-MS/MS (HR LC-MS/MS) technique and the obtained fragmentation pattern was subsequently analyzed to propose putative structures as discussed in the following paragraph. MetID studies was initiated first for the parent 223-2 ligand by HR LC-MS/MS as its fragmentation understanding could act as a guide to potentially identify the metabolites formed after incubation with hepatocytes. Since the 223-2 TbB ligand contain N and O atoms, it could be easily protonated and it was sensitive in positive ionization mode. Consequently, it was studied using the positive fragmentation pattern by ESI-MS ^n .
To understand the fragmentation pattern of the parent compound, EPI spectrum was analyzed. […] Next, TbB ligand 223-2 was incubated (80 min) with hepatocytes and a new metabolite (M1) could be detected when compared with the control (0 min). […]

Row | inhibition at 30 min (CYP2B6) | metabolite detected after incubation with hepatocytes [1] | SMILES | estrogenicity by in vitro studies (estrogenicity)
1 | < 50% | – | Cc1cc(-c2nnn(-c3cc(C)c(O)c(C)c3)n2)cc(C)c1O [223-3] | potentially non-estrogenic
2 | < 50% | – | Oc1ccc(-c2nnn(-c3ccc(O)cc3)n2)cc1 [223-10] | –
3 | < 50% | formation of glucuronide | COc1cc(-c2nnn(-c3cc(OC)c(O)c(OC)c3)n2)cc(OC)c1O [223-2] | potentially non-estrogenic
